pEC50: −log10 of the molar value.
How the values were obtained:
HBV = test: HepAD38 antiviral assay: reduction of viral product accumulation (virion DNA by qPCR, HBsAg or HBeAg by ELISA); assay type: cell-based; conditions: Hepatitis B virus, 120 h; HepAD38 cells, five days after compound addition; 50% reduction of viral product accumulation relative to no drug controls; read-out: HepAD38 EC50
Summary of the method: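 Tetracycline-washed HepAD38 cells treated with compound (DMSO diluted 1:200) for 5 days, or 8 days with media and compound refreshed on d2 and d5. Virion DNA from lysates quantified by qPCR; HBsAg or HBeAg by ELISA. EC50 is the concentration giving 50% reduction versus no-drug controls, reported as ranges A<1 μM, B 1-10 μM, C>10 μM.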

[1] = Compound toxicity, ATPLite total ATP levels; assay type: cell-based; conditions: human, HepAD38 cells; 15,000 cells/well, three days after compound addition; 50% reduction of total ATP levels relative to no drug controls
Procedure: Methods: HepAD38 cells are maintained as previously reported (Ladner et al, Antimicrob. Agents Chemother. 1997, […], 1715). Briefly, cells are passaged upon attaining confluency in DMEM/F12 media in the presence of 10% FBS, Penn/Strep, 250 μg/mL G418, and 1 ug/ml tetracycline. Novel compounds are screened by first washing cells three times with PBS to remove tetracycline, and plating in 96 well plates at 35,000 cells/well. Compounds dissolved in DMSO are then diluted 1:200 into wells containing cells. Five days after compound addition, material is harvested for analysis. For an extended 8 day analysis, cells are plated and treated as described above, but media and compound are refreshed on d2 and d5 post initial treatment.
Compound toxicity is evaluated by seeding cells at 15,000 cells/well and treating with compound as described above. Three days after compound addition, cells are treated with ATPLite reagent and compound concentrations that reduce total ATP levels in wells by 50% relative to no drug controls (CC50) are reported; CC50 ranges are as follows: A>30 μM; B 10-30 μM; C<10 μM.

| SMILES | pEC50 (HBV) | CC50 at 3 days [1] |
| --- | --- | --- |
| O=S(=O)(c1cc(-c2nc(-c3ccc(Br)c(F)c3)c[nH]2)ccc1Cl)N1CCC(F)CC1 [Example 123] | > 6.00 | > 30 µM |
| O=S(=O)(c1c(Cl)ccc2c(-c3cc(F)c(F)c(F)c3)n[nH]c12)N1CCC(O)CC1 [Example 5] | 5.00 to 6.00 | > 30 µM |
| COC(=O)CN(C)S(=O)(=O)c1cc(-c2nc(-c3ccc(Br)c(F)c3)c[nH]2)ccc1Cl [Example 126] | < 5.00 | > 30 µM |
| O=S(=O)(c1cc(-c2nc(-c3ccc(Br)c(F)c3)c[nH]2)ccc1Cl)N1CCC(O)C1 (stereo not shown) [Example 109] | > 6.00 | < 10 µM |
| CS(=O)(=O)CCNS(=O)(=O)c1cc(-c2nc(-c3ccc(Br)c(F)c3)c[nH]2)ccc1Cl [Example 117] | > 6.00 | > 30 µM |
| O=S(=O)(c1cc(-c2nc(-c3ccc(Br)c(F)c3)c[nH]2)ccc1Cl)N1CCN(CCO)CC1 [Example 145] | > 6.00 | > 30 µM |
| N#Cc1cc(-c2cc(-c3ccc(Cl)c(S(=O)(=O)N4CCC(O)CC4)c3)n[nH]2)ccc1F [Example 27] | 5.00 to 6.00 | > 30 µM |
| O=S(=O)(c1cc(-c2nc(-c3ccc(Br)c(F)c3)c[nH]2)ccc1Cl)N1CC(O)C1 [Example 108] | 5.00 to 6.00 | > 30 µM |
| CC(O)C(C)(C)NS(=O)(=O)c1cc(-c2nc(-c3ccc(Br)c(F)c3)c[nH]2)ccc1Cl (stereo not shown) [Example 134] | > 6.00 | > 30 µM |
| Cc1ccccc1-c1c[nH]c(-c2ccc(Cl)c(S(=O)(=O)N3CCC(O)CC3)c2)n1 [Example 121] | 5.00 to 6.00 | > 30 µM |
| CC(C)(C)OC(=O)NCCCNS(=O)(=O)c1cc(-c2ncc(-c3ccc(F)c(Br)c3)[nH]2)ccc1Cl [Example 56] | > 6.00 | < 10 µM |
| O=S(=O)(c1cc2nc(-c3ccccc3)[nH]c2cc1Cl)N1CCC(O)CC1 [Example 2] | < 5.00 | < 10 µM |
| O=S(=O)(NCCO)c1cc(-c2nc(-c3ccc(Br)c(F)c3)c[nH]2)ccc1Cl [Example 115] | > 6.00 | > 30 µM |
| O=S(=O)(c1cc(-c2nc(-c3ccccn3)c[nH]2)ccc1Cl)N1CCC(O)CC1 [Example 33] | < 5.00 | 10 to 30 µM |
| COC(=O)[C@H]1CCN(S(=O)(=O)c2cc(-c3ncc(-c4ccc(F)c(Br)c4)[nH]3)ccc2Cl)C1 [Example 58] | 5.00 to 6.00 | > 30 µM |
| O=S(=O)(c1cc(-c2nc3cc(F)c(F)cc3[nH]2)ccc1Cl)N1CCC(O)CC1 [Example 10] | 5.00 to 6.00 | > 30 µM |
| O=S(=O)(c1cc(-c2nc(-c3cccc(Br)c3)c[nH]2)ccc1Cl)N1CCC(O)CC1 [Example 54] | > 6.00 | > 30 µM |
| O=S(=O)(c1cc(-c2nc(-c3ccc(Cl)cc3)c[nH]2)ccc1Cl)N1CCC(O)CC1 [Example 52] | > 6.00 | 10 to 30 µM |
| O=S(=O)(c1cc(-c2ncc(-c3cccs3)[nH]2)ccc1Cl)N1CCC(O)CC1 [Example 21] | > 6.00 | > 30 µM |

| SMILES | pEC50 (HBV) | CC50 at 3 days [1] |
| --- | --- | --- |
| O=S(=O)(c1cc(-c2nc(-c3ccc(Br)c(Br)c3)c[nH]2)ccc1Cl)N1CCC(O)CC1 [Example 135] | > 6.00 | > 30 µM |
| C#Cc1ccc(-c2c[nH]c(-c3ccc(Cl)c(S(=O)(=O)N4CCC(O)CC4)c3)n2)cc1F [Example 102] | 5.00 to 6.00 | > 30 µM |
| CC(C)(C)OC(=O)NCCNS(=O)(=O)c1cc(-c2nc(-c3ccc(Br)c(F)c3)c[nH]2)ccc1Cl [Example 146] | > 6.00 | > 30 µM |
| O=S(=O)(c1cc(-c2nc(-c3ccncc3)c[nH]2)ccc1Cl)N1CCC(O)CC1 [Example 51] | < 5.00 | > 30 µM |
| O=S(=O)(c1cc(-c2nc(-c3ccc(Br)c(F)c3)c[nH]2)ccc1Cl)N1CCC(O)C(F)C1 (stereo not shown) [Example 114] | > 6.00 | > 30 µM |
| N#Cc1ccc(-c2cnc(-c3ccc(Cl)c(S(=O)(=O)N4CCC(O)CC4)c3)[nH]2)cc1F [Example 47] | > 6.00 | > 30 µM |
| CC1(O)CCN(S(=O)(=O)c2cc(-c3ncc(-c4ccc(F)c(Br)c4)[nH]3)ccc2Cl)CC1 [Example 32] | 5.00 to 6.00 | 10 to 30 µM |
| O=S(=O)(c1cc(-c2ncc(-c3ccc(F)c(Cl)c3)[nH]2)ccc1Cl)N1CCC(O)CC1 [Example 13] | > 6.00 | 10 to 30 µM |
| COCCN(C)S(=O)(=O)c1cc(-c2nc(-c3ccc(Br)c(F)c3)c[nH]2)ccc1Cl [Example 105] | > 6.00 | > 30 µM |
| COC(=O)[C@@H](NS(=O)(=O)c1cc(-c2ncc(-c3ccc(F)c(Br)c3)[nH]2)ccc1Cl)C(C)C [Example 60] | 5.00 to 6.00 | 10 to 30 µM |
| O=S(=O)(NCCCO)c1cc(-c2ncc(-c3ccc(F)c(Br)c3)[nH]2)ccc1Cl [Example 43] | > 6.00 | 10 to 30 µM |
| COC(=O)C(C)NS(=O)(=O)c1cc(-c2nc(-c3ccc(Br)c(F)c3)c[nH]2)ccc1Cl (stereo not shown) [Example 128] | < 5.00 | > 30 µM |
| O=S(=O)(c1cc(-c2cc(-c3ccc(F)c(Br)c3)[nH]n2)ccc1Cl)N1CCC(O)CC1 [Example 24] | 5.00 to 6.00 | < 10 µM |
| O=S(=O)(c1cc(-c2nnc(-c3ccc(F)c(F)c3)[nH]2)ccc1Cl)N1CCC(O)CC1 [Example 23] | 5.00 to 6.00 | 10 to 30 µM |
| O=S(=O)(c1cc(-c2nc(-c3ccc(Br)c(F)c3)c[nH]2)ccc1Cl)N1CCCC(O)C1 (stereo not shown) [Example 110] | > 6.00 | > 30 µM |
| O=C1CCN(S(=O)(=O)c2cc(-c3nc(-c4ccc(Br)c(F)c4)c[nH]3)ccc2Cl)CC1 [Example 59] | > 6.00 | 10 to 30 µM |
| Cc1cc(F)ccc1-c1c[nH]c(-c2ccc(Cl)c(S(=O)(=O)N3CCC(O)CC3)c2)n1 [Example 67] | 5.00 to 6.00 | 10 to 30 µM |
| O=S(=O)(c1cc(-c2nc(-c3ccc4[nH]ccc4c3)c[nH]2)ccc1Cl)N1CCC(O)CC1 [Example 103] | > 6.00 | > 30 µM |
| COC(=O)N1CCN(S(=O)(=O)c2cc(-c3nc(-c4ccc(Br)c(F)c4)c[nH]3)ccc2Cl)CC1 [Example 143] | > 6.00 | > 30 µM |

| SMILES | pEC50 (HBV) | CC50 at 3 days [1] |
| --- | --- | --- |
| O=S(=O)(c1cc(-c2nc(-c3ccc(F)cc3)c[nH]2)ccc1Cl)N1CCC(O)CC1 [Example 40] | 5.00 to 6.00 | > 30 µM |
| CNCCNS(=O)(=O)c1cc(-c2nc(-c3ccc(Br)c(F)c3)c[nH]2)ccc1Cl [Example 118] | > 6.00 | > 30 µM |
| O=S(=O)(c1cc(-c2nc(-c3ccc(C(F)(F)F)c(F)c3)c[nH]2)ccc1Cl)N1CCC(O)CC1 [Example 83] | > 6.00 | < 10 µM |
| NCCCNS(=O)(=O)c1cc(-c2ncc(-c3ccc(F)c(Br)c3)[nH]2)ccc1Cl [Example 61] | 5.00 to 6.00 | < 10 µM |
| CC(C)OC(=O)NCCCNS(=O)(=O)c1cc(-c2nc(-c3ccc(Br)c(F)c3)c[nH]2)ccc1Cl [Example 140] | > 6.00 | > 30 µM |
| CN(C1CCCCC1)S(=O)(=O)c1cc(-c2nc(-c3ccc(Br)c(F)c3)c[nH]2)ccc1Cl [Example 113] | > 6.00 | < 10 µM |
| O=S(=O)(c1cc(-c2ncc(-c3ccccc3)[nH]2)ccc1Cl)N1CCC(O)CC1 [Example 11] | 5.00 to 6.00 | > 30 µM |
| O=S(=O)(c1cc(-c2nc(-c3ccc(Br)c(F)c3)c[nH]2)ccc1Cl)N1CCCCC(O)C1 (stereo not shown) [Example 132] | > 6.00 | > 30 µM |
| CN(CCCO)S(=O)(=O)c1cc(-c2nc(-c3ccc(Br)c(F)c3)c[nH]2)ccc1Cl [Example 106] | > 6.00 | < 10 µM |
| CN(C)CC(=O)NCCCNS(=O)(=O)c1cc(-c2nc(-c3ccc(Br)c(F)c3)c[nH]2)ccc1Cl [Example 200] | 5.00 to 6.00 |  |
| O=S(=O)(c1cc(-c2nc(-c3ccc(Br)c(F)c3)c[nH]2)ccc1Cl)N1CCC[C@@H](O)[C@@H](O)C1 [Example 264] | > 6.00 |  |
| O=S(=O)(c1cc(-c2nc(-c3ccc(Br)c(F)c3)c[nH]2)ccc1Cl)N1CCN(c2cccc(Cl)n2)CC1 [Example 282] | > 6.00 |  |
| O=S(=O)(c1cc(-c2nc(-c3ccc(F)c(C(F)F)c3)c[nH]2)ccc1Cl)N1CCC(O)CC1 [Example 248] | < 5.00 |  |
| COC(=O)NCCCN(CCCO)S(=O)(=O)c1cc(-c2nc(-c3ccc(Br)c(F)c3)c[nH]2)ccc1Cl [Example 236] | > 6.00 |  |
| N#Cc1cc(-c2c[nH]c(-c3ccc(Cl)c(S(=O)(=O)N4CCC(O)CC4)c3)n2)ccc1C(F)(F)F [Example 150] | > 6.00 |  |
| O=S(=O)(c1cc(-c2nc(-c3cccc(F)c3F)c[nH]2)ccc1Cl)N1CCC(O)CC1 [Example 85] | < 5.00 |  |
| COC1CCCCC1N1CCN(S(=O)(=O)c2cc(-c3nc(-c4ccc(Br)c(F)c4)c[nH]3)ccc2Cl)CC1 (stereo not shown) [Example 240] | > 6.00 |  |
| O=S(=O)(c1cc(-c2nc(-c3ccccc3Cl)c[nH]2)ccc1Cl)N1CCC(O)CC1 [Example 75] | < 5.00 |  |
